From article PMC11501026, “L-Arginine and asymmetric dimethylarginine (ADMA) transport across the mouse blood-brain and blood-CSF barriers: Evidence of saturable transport at both interfaces and CNS to blood efflux” (PLOS ONE, 2024)
Several values for one entry are separate records, joined by “and”; a condition that tells them apart may be missing. Equal entries are not always repeated. Structures can show the parent of a compound that is named as a salt. Where two headings read alike, the source gives them in different places.

How the values were obtained:
[1] = test system: [3H]-ADMA transport across the blood-brain and blood-CSF barriers; assay: cross-inhibition, in situ perfusion: [^3H]-ADMA with 100 μM unlabelled L-arginine; format: in vivo, mouse; parameters: uptake into choroid plexus / uptake into frontal cortex / uptake into caudate nucleus / uptake into occipital cortex / uptake into hippocampus / uptake into hypothalamus / uptake into thalamus / uptake into cerebellum: unit not given here; conditions: male, Balb/c, mouse, other: in situ brain perfusion, 10 mins, Balb/c ♂, 5ml/min
Experimental: (§1) Self-inhibition experiments were also performed. […] Cross-competition experiments were also performed.
(§2) The percentage change in the RTissue uptake values achieved in the absence or presence of an unlabelled inhibitor can be calculated by means of Eq 4.
(§3) %change=RTissue−RInhibition/RTissue×100 Eq 4
(§4) We define RInhibition as the RTissue uptake in the presence of an inhibitor in the artificial plasma.
(§5) A decrease in the uptake of radiolabelled solute in the presence of unlabelled inhibitor is indicative of a saturable influx transport system. Conversely, an increase in the uptake of radiolabelled solute in the presence of unlabelled inhibitor is indicative of a saturable efflux transport system.

[2] = test system: [^3H]-ADMA transport across the blood-brain and blood-CSF barriers; assay: as above; format: in vivo, mouse; parameters: uptake into choroid plexus / uptake into frontal cortex / uptake into caudate nucleus / uptake into occipital cortex / uptake into hippocampus / uptake into hypothalamus / uptake into thalamus / uptake into cerebellum: unit not given here; conditions: [3H] ADMA + [14C] Sucrose + 100uM Arg, 10 mins, Balb/c ♂, 5ml/min; individual mice
Experimental: as §1, §2, §3, §4, §5

[3] = in situ brain/choroid plexus perfusion: CNS uptake of [^3H]-arginine, [^3H]-ADMA and [^14C]-sucrose (multiple-time and single-time uptake analysis); conditions: Balb/c ♂, 5ml/min
Experimental: All animals used in procedures were adult male BALB/c mice (between 23 g and 25 g) sourced from Harlan Laboratories, Oxon, UK, unless otherwise stated.
Animals were weighed immediately before the administration of the anaesthetic to ensure correct dosage. Domitor® (medetomidine hydrochloride) and Vetalar® (ketamine) were both purchased from Harlan Laboratories (Cambridge, UK). All animals were terminally anaesthetised (2 mg/kg Domitor® and 150 mg/kg Vetalar® injected intraperitoneally), and a lack of self-righting and paw-withdrawal reflexes (as surrogate indicators of consciousness) thoroughly checked prior to and during all procedures. If needed, additional anaesthetic was administered via the same route. […] At the end of the in situ brain perfusion procedure the animal was killed by decapitated under non-recovery anaesthesia. Animals were heparinised with 100 units heparin (in 0.9% m/v NaCl(aq), Harlan Laboratories; Oxon, UK), administered via the intraperitoneal route prior to surgery.
The in situ brain/choroid plexus perfusion method is designed to directly perfuse the brain with artificial plasma via a cannula placed in the heart. Artificial plasma is prepared to mimic the ionic composition of blood, and transporter inhibitors can be added in known concentrations and delivered to the brain for defined periods of time.
The left ventricle of the heart was cannulated with a 25G x 10 mm butterfly-winged needle connected to the perfusion circuit. […] The right atrium of the heart was sectioned to allow outflow of the artificial plasma. […] Radiolabelled and unlabelled test molecules were infused into the inflowing artificial plasma for periods up to 30 minutes.
At the set perfusion time a CSF sample was taken by inserting a pulled glass micropipette connected to silicon tubing and a syringe into the cisterna magna. Gentle suction was applied, and CSF was withdrawn. Only clear CSF samples were processed and taken for analysis. Samples contaminated with blood were discarded. The animal was then decapitated and the brain removed. Specific brain samples including the circumventricular organs (CVOs) were taken using a Leica S4E L2 stereomicroscope (Leica; Buckinghamshire, UK). The brain samples included the frontal cortex, caudate nucleus, occipital cortex, hippocampus, hypothalamus, thalamus, pons and cerebellum. The CVOs included the choroid plexus, pituitary gland and pineal gland.
All samples (brain regions, capillary depletion brain homogenate, pellet and supernatant, CVOs, CSF and plasma samples) were solubilised in 0.5 mL tissue solubiliser (Solvable; Perkin-Elmer; Boston, MA, USA). After incubating the samples at room temperature for 48 h, 4 mL scintillation fluid (Lumasafe®; Perkin-Elmer; Boston, MA, USA) was added to each before vigorous vortexing.

CN(C)C(N)=NCCC[C@H](N)C(=O)O [ADMA, N^G,N^G-dimethylarginine dihydrochloride]
Kp at 10 min, 62.5 nM ([1]; hypothalamus, with 100 µM unlabelled L-arginine, Difference (ADMA minus Sucrose), hypothalamus, + 100uM Arg, individual mice): 0.0699
Kp at 10 min, 62.5 nM ([1]; hypothalamus, with 100 µM unlabelled L-arginine, Difference (ADMA minus Sucrose), hypothalamus, + 100uM Arg, mean): 0.0777
Kp at 10 min, 62.5 nM ([1]; hypothalamus, with 100 µM unlabelled L-arginine, [3H] ADMA + [14C] Sucrose + 100uM Arg, individual mice, read-out: uptake into hypothalamus): 0.105
Kp at 10 min, 62.5 nM ([1]; hypothalamus, with 100 µM unlabelled L-arginine, [3H] ADMA + [14C] Sucrose + 100uM Arg, mean, read-out: uptake into hypothalamus): 0.11
Kp at 10 min, 62.5 nM ([1]; occipital cortex, with 100 µM unlabelled L-arginine, Difference (ADMA minus Sucrose), occipital cortex, + 100uM Arg, mean): 0.048
Kp at 10 min, 62.5 nM ([1]; occipital cortex, with 100 µM unlabelled L-arginine, [3H] ADMA + [14C] Sucrose + 100uM Arg, mean, read-out: uptake into occipital cortex): 0.0669
Kp at 10 min, 62.5 nM ([1]; pineal gland, with unlabelled L-arginine 100 µM, Difference (ADMA minus Sucrose), pineal gland, + 100uM Arg, mean): 0.613
Kp at 10 min, 62.5 nM ([1]; pineal gland, with unlabelled L-arginine 100 µM, [3H] ADMA + [14C] Sucrose + 100uM Arg, mean, read-out: uptake into pineal gland): 0.915
Kp at 10 min, 62.5 nM ([1]; pituitary gland, with 100 µM unlabelled L-arginine, Difference (ADMA minus Sucrose), pituitary gland, + 100uM Arg, mean): 0.487
Kp at 10 min, 62.5 nM ([1]; pituitary gland, with 100 µM unlabelled L-arginine, [3H] ADMA + [14C] Sucrose + 100uM Arg, mean, read-out: uptake into pituitary gland): 0.6
Kp at 10 min, 62.5 nM ([1]; pons, with 100 µM unlabelled L-arginine, Difference (ADMA minus Sucrose), pons, + 100uM Arg, mean): 0.0483
Kp at 10 min, 62.5 nM ([1]; pons, with 100 µM unlabelled L-arginine, [3H] ADMA + [14C] Sucrose + 100uM Arg, mean, read-out: uptake into pons): 0.0946
Kp at 10 min, 62.5 nM ([1]; thalamus, with 100 µM unlabelled L-arginine, Difference (ADMA minus Sucrose), thalamus, + 100uM Arg, mean): 0.0566
Kp at 10 min, 62.5 nM ([1]; thalamus, with 100 µM unlabelled L-arginine, [3H] ADMA + [14C] Sucrose + 100uM Arg, mean, read-out: uptake into thalamus): 0.0793
uptake into caudate nucleus [2]: 0.06709 and 0.08883 and 0.04583 and 0.07378
uptake into cerebellum [2]: 0.04812 and 0.06526 and 0.1041 and 0.02606 and 0.09306
uptake into choroid plexus [2]: 0.5896 and 0.666 and 0.4457 and 0.7681
uptake into frontal cortex [2]: 0.07007 and 0.07553 and 0.1227 and 0.05236 and 0.1082
uptake into hippocampus [2]: 0.04437 and 0.05436 and 0.09956 and 0.03726 and 0.0687
uptake into hypothalamus [2]: 0.1376 and 0.1261 and 0.09757 and 0.08557
uptake into occipital cortex [2]: 0.04352 and 0.05773 and 0.1002 and 0.05331 and 0.07955
uptake into pituitary gland [2]: 0.3174 and 0.8724 and 1.123 and 0.09502 and 0.5936
uptake into pons [2]: 0.0747 and 0.145 and 0.1344 and 0.05028 and 0.06842
uptake into thalamus [2]: 0.04368 and 0.06682 and 0.145 and 0.05879 and 0.08201
Difference (ADMA minus Sucrose), choroid plexus ([3]; 2.5 mins, individual mouse): 0.4619 (2×) and 1.038 and 0.6787 and 0.7164
Difference (ADMA minus Sucrose), pineal gland ([3]; 2.5 mins, individual mouse): 0.0119 (2×) and 0.6055 and 0.1704 and 0.3775
[3H] ADMA and [14C] Sucrose uptake, choroid plexus ([3]; 2.5 mins, individual mouse): 1.245 and 0.8202 and 0.645 and 0.9198
[3H] ADMA and [14C] Sucrose uptake, frontal cortex ([3]; 2.5 mins, individual mouse, in mL/100 g): 0.1518 and 0.0919
Difference (ADMA minus Sucrose), caudate nucleus ([3]; 30 mins, individual mice): 0.07868 and 0.2155 and 0.07884 and 0.04051 and 0.09553
Difference (ADMA minus Sucrose), choroid plexus ([3]; 30 mins, individual mice): 0.4322 and 0.7701 and 0.2962 and 0.1895 and 0.3495
Difference (ADMA minus Sucrose), frontal cortex ([3]; 30 mins, individual mice): 0.08507 and 0.2094 and 0.08399 and 0.04504 and 0.09711
Difference (ADMA minus Sucrose), occipital cortex ([3]; 30 mins, individual mice): 0.09101 and 0.202 and 0.09058 and 0.04293 and 0.1128
Difference (ADMA minus Sucrose), pineal gland ([3]; 30 mins, individual mice): 0.4361 and 1.061 and 0.1804 and 0.1286 and 0.2721
Difference (ADMA minus Sucrose), caudate nucleus ([3]; 30 mins, mean): 0.1018
Difference (ADMA minus Sucrose), choroid plexus ([3]; 30 mins, mean): 0.4075
Difference (ADMA minus Sucrose), frontal cortex ([3]; 30 mins, mean): 0.1041
Difference (ADMA minus Sucrose), caudate nucleus ([3]; CONTROL, 10 mins, mean): 0.2407
Difference (ADMA minus Sucrose), cerebellum ([3]; CONTROL, 10 mins, mean): 0.1615
Difference (ADMA minus Sucrose), choroid plexus ([3]; CONTROL, 10 mins, mean): 2.6086
Difference (ADMA minus Sucrose), frontal cortex ([3]; CONTROL, 10 mins, mean): 0.2494
Difference (ADMA minus Sucrose), hippocampus ([3]; CONTROL, 10 mins, mean): 0.2174
Difference (ADMA minus Sucrose), hypothalamus ([3]; CONTROL, 10 mins, mean): 0.3042
Difference (ADMA minus Sucrose), occipital cortex ([3]; CONTROL, 10 mins, mean): 0.2252
Difference (ADMA minus Sucrose), pituitary gland ([3]; CONTROL, 10 mins, mean): 1.829
Difference (ADMA minus Sucrose), pons ([3]; CONTROL, 10 mins, mean): 0.2464
